The text below walks through data of patent publication US5770565A, “Peptides for reducing or inhibiting bone resorption” (priority 1994, dated 1998).

Where a SMILES comes first, the peptide text is derived from it. Bridges are numbered along the chain shown (N, C = ends).

The subject of one assay is chick osteoclasts. Kind of assay: chick osteoclast / total cell detachment assay. The format is cell-based. The conditions noted are these: FIG. 5. The procedure:
Peptides were evaluated for their ability to detach osteoclasts from a matrix consisting of serum-coated microtiter plates. In prescreening assays, 5 μM of the various RGD peptides was used to identify RGD peptides that released at least 60% of the osteoclasts from the matrix.
Osteoclasts were isolated from embryonic chicks using a modification of the methods of Boyde et al., Br. Dent. J. 156:216 (1984) and Chambers et al., Endocrinology 116:234 (1985), each of which is incorporated herein by reference. […]
The cells were incubated for 90 min at 37° C. in an atmosphere containing 10% CO2. […] Cell layers were stained for 5 min using 0.1% crystal violet and multinucleated osteoclasts were counted by light microscopy. […]
RGD peptides that are selective for releasing osteoclasts, but not the other cell types, from the matrix were identified by extracting the crystal violet stain from fixed cells and comparing the amount of staining in a control well (no peptide) with the amount of staining following incubation of the cells with an RGD peptide. Crystal violet was extracted using 20% acetic acid and the optical density of the resulting solution was measured in 96 well microtiter plates by spectrophotometry at 562 nm. […]

In a further assay the test system is Swiss-Webster mice. Kind of assay: PTH-induced hypercalcemia assay. The format is in vivo. To be noted: single dose, infused 4 hr after PTH. The source says:
Parathyroid hormone (PTH) activates osteoclasts, which are involved in bone resorption. Associated with the increased osteoclast activity is an increase in serum calcium. The PTH-induced hypercalcemia assay measures the level of serum calcium, which is an indication of bone resorption in a subject (Fischer et al., Endocrinology 132:1411-1413 (1993), which is incorporated herein by reference).
Swiss-Webster mice, which had been parathyroidectomized two weeks prior to beginning the assay, were obtained from Taconic Lab Animals and Services (Germantown N.Y.). Femoral vein catheters (PE-50 fused with PE10 polyethylene tubing; Becton Dickinson; Parsippany, N.J.) were installed in the mice, flushed and locked with heparinized saline (1:10), sutured to adjacent muscle and internalized within the inguinal space of the incision before closing the incision with wound clips. […]
The experiment was initiated by feeding the mice a calcium-deficient diet overnight, then injecting the mice the following morning with a bolus of 0.2 mg PTH/kg (hPTH 1-34; Bachem; Torrance Calif.), intravenously. […] Various doses of a peptide or vehicle were infused into an animal for 4 hr, then ionized serum calcium again was measured. […] Serum calcium measurements were expressed as the difference between the value 30 min before the PTH pulse and 4 hr after peptide infusion was started. […]

The subject of assay [1] is αV β3 integrin, osteoclasts. Kind of assay: series of assays of Example II for potency and selectivity (summary, FIG. 2). The source says: Peptides of the RGDNTic (SEQ ID NO: 56) pharmacophore group are characterized, in general, as having increased potency, whereas the peptides of the pharmacophore RGDDV (SEQ ID NO: 1) group generally have higher receptor selectivity. […] As used herein, the term "potency" or "potent" means that a peptide of the invention is active at a relatively low concentration in the assays described in Examples II and III. A potent peptide of the invention can be identified, for example, using the assays described in Examples II and III.
Selectivity can be due, for example, to the ability of a peptide of the invention to bind to αV β3 with greater affinity than it binds to other integrins. Thus, in addition to having selectivity, for example, for osteoclast binding to a matrix, a peptide of the invention also can display receptor selectivity and, therefore, more specifically alter receptor-mediated binding to a matrix. As used herein, the term "receptor selectivity" means that a peptide of the invention can bind to one receptor with greater affinity than it can bind to another receptor.

Another assay relates to rat osteoclasts. Kind of assay: rat osteoclast attachment assay compared with MG63 or NRK cell attachment. The conditions noted are these: FCS substrate, FIGS. 7 and 8. In kind it is cell-based. As to the method:
To determine the effect of a peptide on the attachment of rat osteoclasts in vitro, 100 μl aliquots of the rat pup bone cell suspension described in Example II.B.2., above, were added in triplicate to 96 well "MAXISORP" plates coated with specific substrates or with FCS. Substrate coated plates were used to determine the ability of peptides to inhibit attachment or induce detachment of an osteoclast from a ligand such as vitronectin, fibronectin, osteopontin or collagen I (Collaborative Research), which are ligands present in bone. Substrates were added to 96 well plates (50 μl of a 5-10 μg/ml solution in sodium carbonate, pH 9.5) and incubated for 2 hr at 37° C. For FCS control wells, 100 μl 10% FCS was added. Wells were aspirated, then washed 2×with PBS and blocked with 1% bovine serum albumin in PBS for 2 hr at 37° C. Wells were aspirated and washed again 2× with PBS. Cells were seeded in duplicate at 4×10^4 cells/well. […]
Following incubation, the medium and nonadherent cells were removed by aspiration from each well. […] Adherent osteoclasts were counted by light microscopy. […]
MG63 and NRK cell lines were purchased from ATTC (Rockville Md.). […] Following staining, the stain was extracted with 20% acetic acid and the OD562 of the extracted stain was determined. […]
Selectivity of a peptide can be determined by comparing the results of FIGS. 7 and 8 (see, also FIG. 2).

Take `CC(C)[C@@H]1NC(=O)[C@H](CC(=O)O)NC(=O)[C@H](CC(=O)O)NC(=O)CNC(=O)[C@H](CCCNC(=N)N)NC(=O)CC[C@@H](C(N)=O)NC1=O` [peptide 386, RGDDVE-NH2] (RGDDVE-NH2; lactam N-6): in the assay with chick osteoclasts, the “selective detachment of osteoclasts as compared to other cell types” value is “selective detachment of osteoclasts”. In addition, the serum calcium level entry in the assay on Swiss-Webster mice was “relatively low level of serum calcium”. For the same molecule, in assay [1], the “potency and selectivity together (summary classification)” value was “both potent and selective”; the “receptor selectivity (summary classification)” value is listed as “particularly receptor selective”. In addition, the “activity of peptides with minimally essential elements” value in assay [1] (FIG. 2) was “demonstrate activity”. In addition, the “selectivity: osteoclast attachment versus MG63 or NRK attachment” value in the assay with rat osteoclasts is recorded as “selective”.
